According to patent US7132425B2, “5-substituted-six-membered heteroaromatic glucokinase activators” (Hoffmann-La Roche Inc., priority 2002, dated 2006):

Assays:
C57BL/6J mice = assay: Glucokinase activator in vivo screen (blood glucose after oral dosing); conditions: oral gavage 50 mg/kg after two hour fast, readings 1, 2, 4 and 6 hours post dose, p≦0.05 for two consecutive assay time points
Protocol: Glucokinase Activator in vivo Screen Protocol: C57BL/6J mice are orally dosed via gavage with Glucokinase (GK) activator at 50 mg/kg body weight following a two hour fasting period. Blood glucose determinations are made five times during the six hour post-dose study period.
Mice (n=6) are weighed and fasted for a two hour period prior to oral treatment.

Row | melting point | SMILES | decrease in blood glucose compared to vehicle (C57BL/6J mice)
1 | 134 to 139 °C | CS(=O)(=O)c1ccc([C@@H](CC2CCCC2)C(=O)Nc2cnc(C(=O)NO)cn2)cc1Cl [Example 29, 5-[2(R)-(3-Chloro-4-methanesulfonyl-phenyl)-3-cyclopentyl-propionylamino]-pyrazine-2-carboxylic acid hydroxyamide] | statistically significant (p≦0.05) decrease in blood glucose
2 | 118.8 to 122.4 °C | C/C(=N/O)c1cnc(NC(=O)[C@H](CC2CCCC2)c2ccc(S(C)(=O)=O)cc2)cn1 [Example 34, 3-Cyclopentyl-N-[5-(1-hydroxyimino-ethyl)-pyrazin-2-yl]-2(R)-(4-methanesulfonyl-phenyl)-propionamide] | statistically significant (p≦0.05) decrease in blood glucose
3 | 97 to 99 °C | CS(=O)(=O)c1ccc([C@@H](CC2CCCC2)C(=O)Nc2cnc(-c3cccs3)cn2)cc1Cl [Example 76, 2(R)-(3-Chloro-4-methanesulfonyl-phenyl)-3-cyclopentyl-N-(5-thiophen-2-yl-pyrazin-2-yl)-propionamide] | statistically significant (p≦0.05) decrease in blood glucose
4 | 97 to 101 °C | CS(=O)(=O)c1ccc([C@@H](CC2CCCC2)C(=O)Nc2cnc(-c3ccoc3)cn2)cc1Cl [Example 78, 2(R)-(3-Chloro-4-methanesulfonyl-phenyl)-3-cyclopentyl-N-(5-furan-3-yl-pyrazin-2-yl)-propionamide] | statistically significant (p≦0.05) decrease in blood glucose
